Experimental data taken from the NIST ThermoML archive (doi:10.1021/je049823k).

Settings: Liquid, Transpiration method

CC(C)(C)OCc1ccccc1 [ether, benzyl tert-butyl]
Settings	vapor or sublimation pressure [kPa]
277.8 K	0.00512
278.1 K	0.00528
279.1 K	0.00577
281.3 K	0.00698
282.9 K	0.00797
284.3 K	0.00893
286.2 K	0.01095
287.3 K	0.01177
287.8 K	0.01209
288.2 K	0.0131
290 K	0.01485
292.2 K	0.0182
293 K	0.01888
293.2 K	0.01908
295.2 K	0.02312
296.2 K	0.02445
297.2 K	0.02652
298 K	0.02843
298.2 K	0.02924
299.2 K	0.03085
300.3 K	0.03419
302.2 K	0.03875
303.1 K	0.04177
303.2 K	0.04305
308 K	0.05754

OCc1ccccc1 [benzenemethanol]
Settings	vapor or sublimation pressure [kPa]
282.9 K	0.00306
285.9 K	0.00407
288.9 K	0.00532
292.1 K	0.00738
295.3 K	0.00983
298.2 K	0.01251
301.2 K	0.01645
302.8 K	0.01923
305.8 K	0.02541
308.8 K	0.03192
311.7 K	0.03999
314.9 K	0.05172
318.1 K	0.06709
321.1 K	0.08348
